Species on record: Mus musculus
Assay: Antiinflammatory activity against croton oil-induced ear swelling in BALB/c mouse after 6 hrs
Format: functional

How did the Activity turn out when `COc1cc(C(=O)O[C@H]2[C@@H]3C=CO[C@@H](O[C@@H]4O[C@H](CO)[C@@H](O)[C@H](O)[C@H]4O)[C@@H]3[C@@]3(CO)O[C@@H]23)ccc1O` [PICROSIDE II] was run?
The Activity was 46%.

Reference: ChEMBL document CHEMBL1144058, “Pikuroside: a novel iridoid from Picrorhiza kurroa” (1999)
